Test results taken from PubChem BioAssay (NCI).
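Interpolation was linear, between the two tested concentrations surrounding the appropriate level; five concentrations were tested over 48 hours in 96-well plates. TGI marks complete inhibition of growth.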 *1 amine or outer side, *2 acyl side, *3 side chain or, on linkers, in order; H or OH if unused. Where a SMILES comes first, the peptide text is derived from it. Bridges are numbered along the chain shown (N, C = ends). [ ]: non-standard residue; d: D form. ξ: configuration not given here. X35 = CC[C@H](C)[C@@H](N[*:1])[C@@H](O)CC(=O)O[C@H](C(=O)[C@H](C)C(=O)[*:2])C(C)C; NMeY = CN[C@@H](Cc1ccc(O)cc1)C(=O)O; dNMeL = CN[C@H](CC(C)C)C(=O)O; ξΔPro = O=C(O)C1C=CCN1

What was measured:
Assay in all cases: NCI tumour cell line growth inhibition, 48 h
A498 renal = tested on: A498 renal
ACHN renal = tested on: ACHN renal
CCRF-CEM leukemia = tested on: CCRF-CEM leukemia
HOP-62 NSCLC = tested on: HOP-62 NSCLC
HT29 colon = tested on: HT29 colon
OVCAR-5 ovarian = tested on: OVCAR-5 ovarian
SN12C renal = tested on: SN12C renal
SNB-19 CNS = tested on: SNB-19 CNS
T-47D breast = tested on: T-47D breast
UACC-257 melanoma = tested on: UACC-257 melanoma

| Compound | TGI (A498 renal) [µM] | TGI (ACHN renal) [µM] | TGI (CCRF-CEM leukemia) [µM] | TGI (HOP-62 NSCLC) [µM] | TGI (HT29 colon) [µM] | TGI (OVCAR-5 ovarian) [µM] | TGI (SN12C renal) [µM] | TGI (SNB-19 CNS) [µM] | TGI (T-47D breast) [µM] | TGI (UACC-257 melanoma) [µM] |
| --- | --- | --- | --- | --- | --- | --- | --- | --- | --- | --- |
| C=C(CCOC)CCC1CCCCC(=C)[C@H]1O (stereo not given in full) | > 100 | > 100 | > 100 | > 100 | > 100 | > 100 | > 100 | > 100 | > 100 | > 100 |
| COc1cc(C)cc2c(-c3c(O)cc(O)c4c3C[C@H](C)N[C@H]4C)cc(-c3cc(-c4c(O)cc(O)c5c4C[C@H](C)N[C@H]5C)c4cc(C)cc(OC)c4c3O)c(O)c12 | > 100 | > 100 | > 100 | > 100 | > 100 | > 100 | > 100 | > 100 | > 100 | > 100 |
| CNC(=O)N(CCC#N)CCCN(C(=O)N(C)C)c1ccccc1 | > 100 | > 100 | > 100 | > 100 | > 100 | > 100 | > 100 | > 100 | > 100 | > 100 |
| O=NN1CCCS1(=O)=O | > 100 | > 100 | > 100 | > 100 | > 100 | > 100 | > 100 | > 100 | > 100 | > 100 |
| COc1cc2c(c(OC)c1)C(=O)O[C@H](C)CCCC/C=C/C2 | > 100 | > 30.6 | > 100 | 24.7 | > 71.8 | > 32.7 | 13.6 | > 32.5 | > 31.6 | > 33.9 |
| COc1cc2oc(-c3ccc4c(c3)OCO4)c(OC)c(=O)c2c(O)c1OC | > 50 | > 50 | > 50 | > 50 | > 50 | > 50 | > 50 | > 50 | > 50 | > 50 |
| O=C(O)CCSC1=NCCN1 | > 100 | > 100 | > 100 | > 100 | > 100 | > 100 | > 100 | > 100 | > 100 | > 100 |
| CC[C@H](C)[C@H]1NC(=O)[C@@H](NC(=O)[C@@H](CC(C)C)N(C)C(=O)C2C=CCN2)[C@@H](C)OC(=O)[C@H](Cc2ccc(OC)cc2)N(C)C(=O)[C@@H]2CCCN2C(=O)[C@H](CC(C)C)NC(=O)[C@@H](C)C(=O)[C@H](C(C)C)OC(=O)C[C@@H]1O (stereo not given in full) (H-[ξΔPro][dNMeL]T[X35]LP[NMeY](Me); ester 3-C) | 0.0139 | 0.061 | > 50 | 0.0363 | < 0.005 | > 50 | > 50 | 0.00706 | 0.136 | 0.239 |
| N#C/C(=C1/c2cc([N+](=O)[O-])ccc2-c2c1cc([N+](=O)[O-])cc2[N+](=O)[O-])N1CCCCC1 | > 100 | > 100 | > 100 | > 100 | > 100 | > 100 | > 100 | > 100 | > 100 | > 100 |
| Nn1c(Sc2nc3ccccc3c(=O)n2N)nc2ccccc2c1=O | 36.5 | 26.4 | 4.51 | 35.9 | 14.3 | 40.6 | 18.8 | 24.6 | > 51.8 | 38.1 |
| COc1cc2c(cc1O)CCN(C)[C@H]2Cc1ccc(Oc2c(O)c(OC)cc3c2C[C@H]2c4c(c(OC)c(OC)c(OC)c4-3)CCN2C)cc1 | 12.7 | 10.7 | 9.28 | 11.8 | 7.35 | 13.2 | 10.7 | 12.5 | 12.2 | 13.4 |
| CC1CN=C(c2ccc(-c3nc(-c4ccc(C5=NCC(C)N5)cc4)nc(N(C)C)n3)cc2)N1 (stereo not given) | 6.7 | 11.5 | 3.59 | 5.35 | 7.33 | 10.8 | 3.87 | 6.73 | 12.9 | 8.76 |
| CC(C)(C)C(=O)N1CCN(C=O)C1=S | 80.8 | > 100 | 97.6 | > 100 | > 100 | > 100 | > 100 | > 100 | > 100 | > 100 |
| CC(=Nc1cc(Cl)cc(Cl)c1)c1ccncc1 | > 100 | > 100 | > 100 | > 100 | > 100 | > 100 | > 100 | > 100 | > 100 | > 100 |
| CC1=CC[C@](C)(O)[C@@]2(C)CC[C@H]3C(=C(C)C)C(=O)C[C@]3(C)C[C@H]12 | > 50 | > 50 | 34.2 | > 50 | > 50 | > 50 | > 50 | > 50 | > 50 | > 50 |
| CC1=NN2C(=N)/C(=C/c3ccccc3)C(=O)N=C2S1 | > 100 | > 100 | > 100 | > 100 | > 100 | > 100 | > 100 | > 100 | > 100 | > 100 |
| Cn1ccc2c(c1=O)C(=O)OC2(C)C | > 100 | > 100 | > 100 | > 100 | > 100 | > 100 | > 100 | > 100 | > 100 | > 100 |
